# Read-outs that look alike come from different tables or passages of the source.
# What was measured:
# [1] = system: D1-like dopamine receptors in l-LNv; assay: EPAC-FRET cAMP imaging of l-LNv response to dopamine; format: cell-based, Drosophila
# [2] = system: dopamine receptor(s) (DA-R) in s-LNv; details: for Max Ampl DA ZT4 / Max Ampl DA ZT22 / EC50: Pdf > Epac50A
# [3] = system: Drosophila D1-like receptors expressed in hEK-293 cells; details: hEK-293 cells expressing Drosophila D1-like receptor
# [4] = system: dopamine receptor(s) (DA-R) in s-LNv; details: 2012, cited from earlier work
# [5] = system: D1-like dopamine receptors in l-LNv; details: via one or more D1-like dopamine receptors, ref Shang et al. 2011, Duvall and Taghert, 2012; cited from earlier work
structure (smiles),measurement,setting,value
"NCCc1ccc(O)c(O)c1 [DA, dopamine]",FRET responses to DA over the 24-hr period,"[1]; 3 × 10^−05 M DA, N=33 brains, 178 ROIs, P=0.574",did not significantly vary over the 24-hr time period tested
same,Max Ampl DA ZT4,"[1]; Pdf > Epac50A, LD 12:12, ZT4",15.3 ± 1.3
same,Max Ampl DA ZT22,"[1]; Pdf > Epac50A, LD 12:12, ZT22",16.0 ± 1.3
same,rhythm of responsiveness to DA,"[2]; 3 × 10^−05 M DA, s-LNv, N=36 brains, 124 ROIs","peak phase in synchrony with the peak phase of PDF responsiveness, just after lights-on"
same,Max Ampl DA ZT4,"[2]; s-LNv, LD 12:12, ZT4",15.3 ± 1.2
same,Max Ampl DA ZT22,"[2]; s-LNv, LD 12:12, ZT22",14.7 ± 2.8
same,Max Ampl DA ZT4,"[2]; rala[CA], s-LNv, LD 12:12, ZT4",14.0 ± 1.4
same,Max Ampl DA ZT22,"[2]; rala[CA], s-LNv, LD 12:12, ZT22",13.6 ± 2.0
same,Max Ampl DA ZT4,"[2]; rala[DN], s-LNv, LD 12:12, ZT4",13.6 ± 1.5
same,Max Ampl DA ZT22,"[2]; rala[DN], s-LNv, LD 12:12, ZT22",14.4 ± 1.9
same,EC50,"[2]; read-out: DA EC50 ZT4, rala[CA], s-LNv, LD 12:12, ZT4",5.7 µM
same,EC50,"[2]; read-out: DA EC50 ZT4, rala[DN], s-LNv, LD 12:12, ZT4",29 µM
same,EC50,"[2]; read-out: DA EC50 ZT22, rala[CA], s-LNv, LD 12:12, ZT22",6.4 µM
same,DA responsiveness after RNAi targeting of AC13E and of ACX-A,"[2]; s-LNv, Suppl. Figure 2-top",partially reduced DA responsiveness
same,attenuation of FRET response after peak,[2]; sustained exposure to DA,rapidly attenuated
same,time to peak of FRET response,"[2]; sustained exposure to DA, relation: within",1 to 2 min
same,β-ARR2-GFP translocation,[3],potently recruited β-ARR2-GFP translocation
same,DA responsiveness on over-expression of AC3,"[4]; s-LNv, ref Duvall and Taghert",no effect on DA responsiveness
same,cAMP increase in vivo,"[4]; small LNv, ref Shang et al. 2011, Duvall and Taghert",generates cAMP increases in vivo
same,cAMP increase in vivo,[5],generates cAMP increases in vivo
